Experiments:
[1] = test system: CD34+ cells isolated from donor peripheral blood; test: Enhancement of HSCs derived from non-mobilized peripheral blood with compounds of Formula I (Example 33); format: cell-based; details: normalized fold change days 2 to 7
Protocol: CD34+ cells were isolated from donor peripheral blood. Standard buffy coat separation using ficoll paque was performed. Cells were pelleted and incubated with unlabeled CD64 antibody. Cells then underwent negative depletion using biotinylated CD2, CD3, CD4, CD5, CD8, CD11b, CD14, CD16, CD19, CD20, CD45RA, CD56, CD235 (in some examples CD15, CD25 and other lineage specific antibodies may also be used). Cells which bind these antibodies are depleted using streptavidin beads. The enriched progenitor pool then undergoes cell sorting for CD34+.
Isolated CD34+ cells were incubated in an in vitro culture media of Alpha MEM without phenol red with 10% (v/v) heat inactivated fetal bovine serum (FBS). When testing compounds of Formula I, two internal controls were used: a positive control (+SF conditions) and a baseline control (i.e. basic conditions (“cytokines only”)). The media components and concentrations used for the compounds tested are described in [0563] Table 2. The culture also included an antibiotic solution that includes penicillin, streptomycin, and amphotericin B to avoid contamination. Controls were included because the amount of expansion in samples obtained varies from individual to individual.
Cultures were incubated at […] (controlled by nitrogen) and 5% CO2.
Small molecule components were added separately and fresh each time the media needs to be refreshed. Cytokines can be stored together. Media renewal should occur at least every few days.
On the days indicated one-half of the volume of the cell culture was removed for data analysis (flow cytometry using a BD FACS ARIA II). The culture volume was replenished with fresh media according to the conditions tested. The data reported accounts for the dilution factor introduced in this procedure.
Separate experiments were performed for each compound tested (Compound 1.001-1.023).
Table 3, below, summarizes the relative expansive effect of Compound 1.001 to 1.023 (sample compounds) at the indicated concentration. The data in Table 3 is reported as the relative expansive effect. The relative expansive effect is a normalized value of the fold changes shown in each of FIG. 1-FIG. 23. It is calculated as shown below: […]

[2] = test system: CD34+ cells from cord blood; test: Expansion of cord blood CD34+ cells, seven-day culture (Example 35); format: cell-based, human; details: normalized fold change days 1 to 7
Protocol: CD34+ cells from cord blood were purchased from STEMCELL Technologies. Primary human CD34+ cells were isolated from cord blood samples using positive immunomagnetic separation techniques. Cells were thawed and gradually brought to room temperature. Samples were washed, then placed in overnight culture in StemSpan with 100 ng/ml each of FLT3L, TPO, SCF, and TL-6. Eighteen to twenty-four hours later (day 1), cells were counted and immunophenotyped (flow cytometry on an Invitrogen Attune N×T cytometer).
Approximately 1000 live cells were plated into each well of 96-well plates; exact cell numbers dispensed per well were quantified with flow cytometry for later calculations.
Media for testing compounds of Formula I was prepared using Alpha MEM without phenol red, 10% (v/v) heat inactivated fetal bovine serum. Culture conditions also included an antibiotic solution that includes penicillin, streptomycin, and amphotericin B to avoid contamination. Additional media components and concentrations used for the compounds tested are described in Table 5.
All incubations for this experiment took place at 3% oxygen (controlled by nitrogen) and 5% CO2. Following seven days of culture, cells from wells were collected and phenotypes were analyzed (flow cytometry on an Invitrogen Attune N×T cytometer).
Table 6 below, summarizes the relative expansive effect of the screened compounds at the indicated concentration. The data in Table 6 is reported as the relative expansive effect. The relative expansive effect is a normalized value of the fold changes shown in each of the figures. It is calculated as shown below: […]

SMILES: CC(C)(C)C(=O)Nc1ccc2c(c1)C(=O)C1CCCC21 (centres unmarked) [Compound 1.001, N-(8-oxo-1,2,3,3a,8,8a-hexahydrocyclopenta[a]inden-6-yl)pivalamide]
- CD90 effect (relative expansive effect on CD34+/CD133+/CD90+ cells) ([1]; sample compound 0.5 μM): ++ (0.2 ≤ x < 0.55)
- CD133 effect (relative expansive effect on CD34+/CD133+ cells) ([1]; sample compound 0.5 μM): + (x < 0.2)

SMILES: CC(C)(C)C(=O)Nc1ccc2c(c1)C(=O)C1CCCCC21 (centres unmarked) [Compound 1.002, N-(9-oxo-2,3,4,4a,9,9a-hexahydro-1H-fluoren-7-yl)pivalamide]
- CD90 effect (relative expansive effect on CD34+/CD133+/CD90+ cells) ([1]; sample compound 16 μM): ++ (0.2 ≤ x < 0.55)
- CD133 effect (relative expansive effect on CD34+/CD133+ cells) ([1]; sample compound 16 μM): + (x < 0.2)

SMILES: CC(C)(C)OC(=O)Nc1ccc2c(c1)C(=O)c1ccccc1-2 [Compound 1.003, tert-butyl (9-oxo-9H-fluoren-2-yl)carbamate]
- CD90 effect (relative expansive effect on CD34+/CD133+/CD90+ cells) ([1]; sample compound 0.5 μM): ++ (0.2 ≤ x < 0.55)
- CD133 effect (relative expansive effect on CD34+/CD133+ cells) ([1]; sample compound 0.5 μM): ++ (0.2 ≤ x < 0.55)

SMILES: CC(C)(C)Nc1ccc2c(c1)C(=O)c1ccccc1-2 [Compound 1.004, 2-(tert-butylamino)-9H-fluoren-9-one]
- CD90 effect (relative expansive effect on CD34+/CD133+/CD90+ cells) ([1]; sample compound 8 μM): +++ (0.55 ≤ x < 0.9)
- CD133 effect (relative expansive effect on CD34+/CD133+ cells) ([1]; sample compound 8 μM): ++ (0.2 ≤ x < 0.55)

SMILES: CC(C)(C)C(=O)Nc1ccc2c(c1)C(=O)c1ccccc1-2 [Compound 1.005, N-(9-oxo-9H-fluoren-2-yl)pivalamide]
- CD90 effect (relative expansive effect on CD34+/CD133+/CD90+ cells) ([2]; sample compound 0.5 μM): ++ (1.44 ≤ x < 1.8)
- CD133 effect (relative expansive effect on CD34+/CD133+ cells) ([2]; sample compound 0.5 μM): ++ (1.44 ≤ x < 1.8)
- CD90 effect (relative expansive effect on CD34+/CD133+/CD90+ cells) ([1]; sample compound 0.125 μM): +++ (0.55 ≤ x < 0.9)
- CD133 effect (relative expansive effect on CD34+/CD133+ cells) ([1]; sample compound 0.125 μM): ++ (0.2 ≤ x < 0.55)

SMILES: NC(=O)Nc1ccc2c(c1)C(=O)c1cc(NC(N)=O)ccc1-2 [Compound 1.011, 1,1′-(9-oxo-9H-fluorene-2,7-diyl)diurea]
- CD90 effect (relative expansive effect on CD34+/CD133+/CD90+ cells) ([1]; sample compound 0.125 μM): ++ (0.2 ≤ x < 0.55)
- CD133 effect (relative expansive effect on CD34+/CD133+ cells) ([1]; sample compound 0.125 μM): + (x < 0.2)

SMILES: CC(=O)Nc1ccc2c(c1)C(=O)c1cc(NC(C)=O)ccc1-2 [Compound 1.012, N,N′-(9-oxo-9H-fluorene-2,7-diyl)diacetamide]
- CD90 effect (relative expansive effect on CD34+/CD133+/CD90+ cells) ([1]; sample compound 0.25 μM): ++ (0.2 ≤ x < 0.55)
- CD133 effect (relative expansive effect on CD34+/CD133+ cells) ([1]; sample compound 0.25 μM): ++ (0.2 ≤ x < 0.55)

SMILES: CC(C)(C)C(=O)Nc1ccc2c(c1)C(=O)c1ccc(O)cc1-2 [Compound 1.016, N-(6-hydroxy-9-oxo-9H-fluoren-2-yl)pivalamide]
- CD90 effect (relative expansive effect on CD34+/CD133+/CD90+ cells) ([1]; sample compound 16 μM): ++++ (0.9 ≤ x < 1.25)
- CD133 effect (relative expansive effect on CD34+/CD133+ cells) ([1]; sample compound 16 μM): ++ (0.2 ≤ x < 0.55)

SMILES: CNc1ccc2c(c1)C(O)c1ccccc1-2 (centres unmarked) [Compound 1.018, 2-(methylamino)-9H-fluoren-9-ol]
- CD90 effect (relative expansive effect on CD34+/CD133+/CD90+ cells) ([1]; sample compound 4 μM): ++ (0.2 ≤ x < 0.55)
- CD133 effect (relative expansive effect on CD34+/CD133+ cells) ([1]; sample compound 4 μM): + (x < 0.2)

SMILES: O=C1c2ccccc2-c2ccc(F)cc21 [Compound 1.020]
- CD90 effect (relative expansive effect on CD34+/CD133+/CD90+ cells) ([1]; sample compound 16 μM): ++ (0.2 ≤ x < 0.55)
- CD133 effect (relative expansive effect on CD34+/CD133+ cells) ([1]; sample compound 16 μM): ++ (0.2 ≤ x < 0.55)

SMILES: CC(=O)OC1c2ccccc2-c2ccc(NC(=O)C(C)(C)C)cc21 (centres unmarked) [Compound 1.024, 2-pivalamide-9H-fluoren-9-yl acetate]
- CD90 effect (relative expansive effect on CD34+/CD133+/CD90+ cells) ([2]; sample compound 8 μM): ++++ (2.16 ≤ x < 2.52)
- CD133 effect (relative expansive effect on CD34+/CD133+ cells) ([2]; sample compound 8 μM): +++ (1.8 ≤ x < 2.16)

SMILES: COC1c2ccccc2-c2ccc(NC(=O)C(C)(C)C)cc21 (centres unmarked) [Compound 1.025, N-(9-methoxy-9H-fluoren-2-yl)pivalamide]
- CD90 effect (relative expansive effect on CD34+/CD133+/CD90+ cells) ([2]; sample compound 8 μM): ++++ (2.16 ≤ x < 2.52)
- CD133 effect (relative expansive effect on CD34+/CD133+ cells) ([2]; sample compound 8 μM): +++ (1.8 ≤ x < 2.16)

SMILES: CC(C)(C)C(=O)Nc1ccc2c(c1)C(C#N)c1ccccc1-2 (centres unmarked) [Compound 1.026, N-(9-cyano-9H-fluoren-2-yl)pivalamide]
- CD90 effect (relative expansive effect on CD34+/CD133+/CD90+ cells) ([2]; sample compound 2 μM): ++ (1.44 ≤ x < 1.8)
- CD133 effect (relative expansive effect on CD34+/CD133+ cells) ([2]; sample compound 2 μM): ++ (1.44 ≤ x < 1.8)

SMILES: CC(=O)Oc1ccc2c(c1)C(=O)c1cc(OC(C)=O)ccc1-2 [Compound 1.027, 9-oxo-9H-fluorene-2,7-diyl diacetate]
- CD90 effect (relative expansive effect on CD34+/CD133+/CD90+ cells) ([2]; sample compound 2 μM): ++ (1.44 ≤ x < 1.8)
- CD133 effect (relative expansive effect on CD34+/CD133+ cells) ([2]; sample compound 2 μM): ++ (1.44 ≤ x < 1.8)

SMILES: CC(C)(C)C(=O)Nc1ccc2c(c1)/C(=N\O)c1ccccc1-2 [Compound 1.028, N-(9-(hydroxyimino)-9H-fluoren-2-yl)pivalamide]
- CD90 effect (relative expansive effect on CD34+/CD133+/CD90+ cells) ([2]; sample compound 2 μM): +++ (1.8 ≤ x < 2.16)
- CD133 effect (relative expansive effect on CD34+/CD133+ cells) ([2]; sample compound 2 μM): +++ (1.8 ≤ x < 2.16)

SMILES: CC(=O)Nc1ccc2c(c1)C(O)c1ccccc1-2 (centres unmarked) [Compound 1.029, N-(9-hydroxy-9H-fluoren-2-yl)acetamide]
- CD90 effect (relative expansive effect on CD34+/CD133+/CD90+ cells) ([2]; sample compound 8 μM): ++++ (2.16 ≤ x < 2.52)
- CD133 effect (relative expansive effect on CD34+/CD133+ cells) ([2]; sample compound 8 μM): ++++ (2.16 ≤ x < 2.52)

SMILES: CC(C)(C)C(=O)Oc1ccc2c(c1)C(O)c1ccccc1-2 (centres unmarked) [Compound 1.030, 9-hydroxy-9H-fluoren-2-yl pivalate]
- CD90 effect (relative expansive effect on CD34+/CD133+/CD90+ cells) ([2]; sample compound 10 μM): +++ (1.8 ≤ x < 2.16)
- CD133 effect (relative expansive effect on CD34+/CD133+ cells) ([2]; sample compound 10 μM): +++ (1.8 ≤ x < 2.16)

SMILES: O=C(Nc1ccc2c(c1)C(O)c1ccccc1-2)C1CCCCO1 (centres unmarked) [Compound 1.031, N-(9-hydroxy-9H-fluoren-2-yl)tetrahydro-2H-pyran-2-carboxamide]
- CD90 effect (relative expansive effect on CD34+/CD133+/CD90+ cells) ([2]; sample compound 10 μM): ++ (1.44 ≤ x < 1.8)
- CD133 effect (relative expansive effect on CD34+/CD133+ cells) ([2]; sample compound 10 μM): +++ (1.8 ≤ x < 2.16)

SMILES: O=C(Nc1ccc2c(c1)C(O)c1ccccc1-2)c1ccc(O)cc1 (centres unmarked) [Compound 1.032, 4-hydroxy-N-(9-hydroxy-9H-fluoren-2-yl)benzamide]
- CD90 effect (relative expansive effect on CD34+/CD133+/CD90+ cells) ([2]; sample compound 10 μM): ++ (1.44 ≤ x < 1.8)
- CD133 effect (relative expansive effect on CD34+/CD133+ cells) ([2]; sample compound 10 μM): ++ (1.44 ≤ x < 1.8)

SMILES: CN(C)C(=O)Nc1ccc2c(c1)C(O)c1ccccc1-2 (centres unmarked) [Compound 1.033, 3-(9-hydroxy-9H-fluoren-2-yl)-1,1-dimethylurea]
- CD90 effect (relative expansive effect on CD34+/CD133+/CD90+ cells) ([2]; sample compound 10 μM): ++ (1.44 ≤ x < 1.8)
- CD133 effect (relative expansive effect on CD34+/CD133+ cells) ([2]; sample compound 10 μM): +++ (1.8 ≤ x < 2.16)

SMILES: O=C(Nc1ccc2c(c1)C(O)c1ccccc1-2)C(Cl)(Cl)Cl (centres unmarked) [Compound 1.034, 2,2,2-trichloro-N-(9-hydroxy-9H-fluoren-2-yl)acetamide]
- CD90 effect (relative expansive effect on CD34+/CD133+/CD90+ cells) ([2]; sample compound 10 μM): +++++ (2.52 ≤ x)
- CD133 effect (relative expansive effect on CD34+/CD133+ cells) ([2]; sample compound 10 μM): +++++ (2.52 ≤ x)

SMILES: Nc1ccc2c(c1)C(=O)c1ccccc1-2 [Compound 1.035]
- CD90 effect (relative expansive effect on CD34+/CD133+/CD90+ cells) ([2]; sample compound 10 μM): +++ (1.8 ≤ x < 2.16)
- CD133 effect (relative expansive effect on CD34+/CD133+ cells) ([2]; sample compound 10 μM): +++ (1.8 ≤ x < 2.16)

SMILES: O=C1c2ccccc2-c2ccc([N+](=O)[O-])cc21 [Compound 1.036]
- CD90 effect (relative expansive effect on CD34+/CD133+/CD90+ cells) ([2]; sample compound 10 μM): +++ (1.8 ≤ x < 2.16)
- CD133 effect (relative expansive effect on CD34+/CD133+ cells) ([2]; sample compound 10 μM): ++ (1.44 ≤ x < 1.8)

SMILES: O=C1c2ccccc2-c2ccccc21 [Compound 1.037]
- CD90 effect (relative expansive effect on CD34+/CD133+/CD90+ cells) ([2]; sample compound 10 μM): ++ (1.44 ≤ x < 1.8)
- CD133 effect (relative expansive effect on CD34+/CD133+ cells) ([2]; sample compound 10 μM): + (x < 1.44)

— patent US20220315895A1, “METHODS OF MAKING OLIGOPOTENT AND UNIPOTENT PRECURSORS” (Transfusion Health, LLC, priority 2019, published 2022)
